US20230057568A1, “COMPOUNDS FOR TREATING FAMILIAL DYSAUTONOMIA” (PTC THERAPEUTICS, INC., priority 2019, published 2023)

Tested on: Elongator complex protein 1 (ELP1, also referred to as IKBKAP)
Experiment: IKBKAP-HTRF Assay
Format: cell-based, human
Conditions: FD patient-derived fibroblasts GM04589, 48 hours incubation; for EC2x for IKBKAP protein expression (concentration producing two times the amount of IKBKAP protein vs DMSO vehicle control): 7-point concentration curve; for MFI (maximum fold increase in IKBKAP protein abundance relative to the vehicle control): HTRF
Experimental: The assay is used for the quantitative determination of Elongator complex protein 1 (ELP1, also referred to as IKBKAP) concentration in cell lysates using the HTRF® (Homogeneous Time-Resolved Fluorescence) technology. IKBKAP is detected in a sandwich HTRF assay by use of an anti-IKAP antibody labeled with a donor and an anti-IKAP antibody labeled with an acceptor.
Cells were thawed and incubated in DMEM-10% FBS for 72 hours. Cells were trypsinized, counted, and re-suspended to a concentration of 50,000 cells/mL in DMEM-10% FBS. A 199 μL, aliquot of the cell suspensions were plated at 10,000 cells per well in a 96 well microtiter plate and incubated for 3 to 5 hours. […] Test compounds were serially diluted 3.16-fold in 100% DMSO to generate a 7-point concentration curve. A 1 μL aliquot of 200× compound solution was transferred to cell-containing wells, and cells were incubated for 48 hours in a cell culture incubator (37° C., 5% CO2, 100% relative humidity). Triplicate samples were set up for each compound concentration. After 48 hours, the supernatant was removed from the cells and 50 μL of the 1× LB4 lysis buffer, containing protease inhibitors, was added to the cells and incubated with shaking at room temperature for 1 hour. A 36 μL aliquot of this lysate was subsequently transferred to the 384-well plate containing 4 μL of the antibody solution (1:50 dilution of anti IKAP d2 and anti-IKAP K(9+8) in detection buffer). The 384-well plate was then centrifuged for 1 minute to bring the solutions to the bottom of the plate and incubated overnight at 4° C. Fluorescence for each well of the plate at 665 nm and 620 nm was measured was on the EnVision plate reader (Perkin Elmer). The AF for each sample is calculated by: […]
wherein Signal is the normalized fluorescence for each sample well and Blank is the average normalized average fluorescence for the Blank control wells.
The maximum fold increase (MFI) in IKBKAP protein abundance for compounds of Formula (I) or a form thereof relative to the vehicle control are provided in Table 1. MFI was calculated by dividing the AF value for each sample well by the sample AF for the vehicle control wells.
The EC2× for IKBKAP protein expression obtained from the 7-point concentration curve generated for each test compound according to the protocol in Biological Example 1 are also provided in Table 1. The term “EC2× for IKBKAP protein expression” is defined as the concentration of test compound that is effective in producing two times the amount of IKBKAP protein in a FD patient cell compared to the amount produced from the DMSO vehicle control.

| SMILES | EC2x for IKBKAP protein expression (concentration producing two times the amount of IKBKAP protein vs DMSO vehicle control) | MFI (maximum fold increase in IKBKAP protein abundance relative to the vehicle control) |
| --- | --- | --- |
| CC[C@H](N)Cc1sc2c(NCc3ccco3)nc(Cl)nc2c1C [Cpd 13, 6-[(2S)-2-aminobutyl]-2-chloro-N-[(furan-2-yl)methyl]-7-methylthieno[3,2-d]pyrimidin-4-amine] | ***** (<0.005 μM) | ***** (>4.9) |
| CC[C@H](N)Cc1sc2c(NCc3sccc3F)nc(Cl)nc2c1C [Cpd 91, 6-[(2S)-2-aminobutyl]-2-chloro-N-[(3-fluorothiophen-2-yl)methyl]-7-methylthieno[3,2-d]pyrimidin-4-amine] | **** (between >0.005 μM and ≤0.02 μM) | ***** (>4.9) |
| Cc1c(C[C@H](C)N)sc2c(NCc3ccncc3F)nc(Cl)nc12 [Cpd 35, 6-[(2S)-2-aminopropyl]-2-chloro-N-[(3-fluoropyridin-4-yl)methyl]-7-methylthieno[3,2-d]pyrimidin-4-amine] | ***** (<0.005 μM) | ***** (>4.9) |
| CC[C@@H](N)c1sc2c(NCc3ccco3)nc(Cl)nc2c1C [Cpd 49, 6-[(1R)-1-aminopropyl]-2-chloro-N-[(furan-2-yl)methyl]-7-methylthieno[3,2-d]pyrimidin-4-amine] | * (EC2×>1 μM) | * (MFI<1.9) |
| CC(C)(C)[C@H](N)Cc1cc2nc(Cl)nc(NCc3ccco3)c2s1 [Cpd 7, 6-[(2R)-2-amino-3,3-dimethylbutyl]-2-chloro-N-[(furan-2-yl)methyl]thieno[3,2-d]pyrimidin-4-amine] | ** (between >0.5 μL and ≤1 μM) | * (MFI<1.9) |
| Cc1c(C[C@H](C)N)sc2c(NCc3c(F)cncc3F)nc(Cl)nc12 [Cpd 64, 6-[(2S)-2-aminopropyl]-2-chloro-N-[(3,5-difluoropyridin-4-yl)methyl]-7-methylthieno[3,2-d]pyrimidin-4-amine] | **** (between >0.005 μM and ≤0.02 μM) | ***** (>4.9) |
| Cc1c(C[C@H](C)N)sc2c(NCc3ccco3)nc(C#N)nc12 [Cpd 21, 6-[(2S)-2-aminopropyl]-4-{[(furan-2-yl)methyl]amino}-7-methylthieno[3,2-d]pyrimidine-2-carbonitrile] | **** (between >0.005 μM and ≤0.02 μM) | ***** (>4.9) |
| Clc1nc(NCc2ccco2)c2sccc2n1 [Cpd 2, 2-chloro-N-[(furan-2-yl)methyl]thieno[3,2-d]pyrimidin-4-amine] | * (EC2×>1 μM) | *** (between >2.9 and <3.9) |
| CC(C)[C@H](N)Cc1cc2nc(Cl)nc(NCc3ccco3)c2s1 [Cpd 5, 6-[(2R)-2-amino-3-methylbutyl]-2-chloro-N-[(furan-2-yl)methyl]thieno[3,2-d]pyrimidin-4-amine] | *** (between >0.02 μM and ≤0.5 μM) | *** (between >2.9 and <3.9) |
| Cc1csc2c(NCc3ccco3)nc(C(F)(F)F)nc12 [Cpd 25, N-[(furan-2-yl)methyl]-7-methyl-2-(trifluoromethyl)thieno[3,2-d]pyrimidin-4-amine] | * (EC2×>1 μM) | * (MFI<1.9) |
